Measured values reported in patent US4687780A, “Anti-tumor compounds of platinum” (Johnson Matthey PLC, priority 1985, dated 1987).

Assays:
[1] = tested on: L1210 leukaemia; test: anti-tumor activity against L1210 leukaemia in CDF1 male mice, i.p. single dose Day 1; type: in vivo; design: median survival time (MST): unit not given here; conditions: for % T/C (MST/MST control×100) / median survival time (MST): single dose Day 1; for average weight change (AWC): by Day 5
Protocol: (§1) Compounds according to the invention were screened for anti-tumor activity against L1210 leukaemia and B16 melanoma in mice. The compounds were administered intraperitoneally as solutions or suspensions in water and "Tween" 80 as carrier to CDF1 male mice (L1210) and BDF1 female mice (B16). […] For each dose level, results are quoted in terms of median survival time (MST); the comparative effect (i.e. MST/MST control×100); average weight change (AWC) by Day 5 (L1210) or Day 6 (B16); and the number of mice alive (MA) at Day 5 (L1210) or Day 10 (B16).
(§2) Results were as follows for the compounds as prepared in Examples 3 and 4.
1. L1210 (1×10^6 cells): treatment consisted of single dose on Day 1.

[2] = tested on: B16 melanoma; test: anti-tumor activity against B16 melanoma in BDF1 female mice, i.p. 9 daily doses; type: in vivo; design: median survival time (MST): unit not given here; conditions: for % T/C (MST/MST control×100) / median survival time (MST): 9 daily doses from Day 1; for average weight change (AWC): by Day 6
Protocol: as §1, §2
2. B16 (0.5 ml 10% BREI): treatment consisted of 9 daily doses beginning at Day 1.

[3] = pharmacokinetic tests: Pt in blood and cumulative percentage dose in urine, cage wash and faeces after oral administration; type: in vivo, female Balb C^- mice
Protocol: (§3) Additionally, the same compounds were tested for activity against ADJ/PC6A plasmacytoma grown subcutaneously in female Balb C^- mice following oral administration as a suspension in arachis oil. Dosage levels were at 100μ mole/kg of body weight for pharmacokinetic tests to establish the extent of absorption into the systemic circulation.
(§4) Results are presented in terms of concentration (μg/ml) of Pt in the blood and cumulative percentage dose in urine, cage wash and faeces, all after specified time intervals. Results for anti-tumor effect are expressed as LD50 (mg/kg), ED90 (mg/kg), and TI (LD50 /ED90). The figures for LD50 (the dose level causing 50% deaths) and ED90 (the dose level causing a 90% reduction in tumor size) are determined by administering dosage levels ranging from lethal to non-tumor inhibitory. The therapeutic index (TI) is an indication of the selectivity of the compound as an anti-tumor agent.

[4] = tested on: ADJ/PC6A plasmacytoma; test: activity against ADJ/PC6A plasmacytoma grown subcutaneously in mice, oral administration; type: in vivo, female Balb C^- mice; conditions: for ED90 (dose level causing a 90% reduction in tumor size): suspension in arachis oil
Protocol: as §3, §4

[5] = LD50 (dose level causing 50% deaths), oral administration; type: in vivo, female Balb C^- mice; conditions: suspension in arachis oil
Protocol: as §3, §4

SMILES: N.NC1CCCCC1.O=C([O-])C1(C(=O)[O-])CCC1.[Pt+2] [Ex. 3, ammine(cyclobutane-1,1-dicarboxylato)cyclohexylamine platinum(II)]
- % T/C (MST/MST control×100) ([1]; 40 mg/kg i.p.): 154%
- median survival time (MST) ([1]; 40 mg/kg i.p.): 10.0
- number of mice alive (MA) ([1]; 40 mg/kg i.p., single dose, at Day 5): 5/5
- average weight change (AWC) ([1]; 40 mg/kg i.p., single dose): -0.1 g
- % T/C (MST/MST control×100) ([1]; 80 mg/kg i.p.): 185%
- median survival time (MST) ([1]; 80 mg/kg i.p.): 12.0
- number of mice alive (MA) ([1]; 80 mg/kg i.p., single dose, at Day 5): 6/6
- average weight change (AWC) ([1]; 80 mg/kg i.p., single dose): -2.4 g
- % T/C (MST/MST control×100) ([1]; 120 mg/kg i.p.): 185%
- median survival time (MST) ([1]; 120 mg/kg i.p.): 12.0
- number of mice alive (MA) ([1]; 120 mg/kg i.p., single dose, at Day 5): 6/6
- average weight change (AWC) ([1]; 120 mg/kg i.p., single dose): -0.6 g
- % T/C (MST/MST control×100) ([1]; 160 mg/kg i.p.): 231%
- median survival time (MST) ([1]; 160 mg/kg i.p.): 15.0
- number of mice alive (MA) ([1]; 160 mg/kg i.p., single dose, at Day 5): 5/6
- average weight change (AWC) ([1]; 160 mg/kg i.p., single dose): -4.5 g
- % T/C (MST/MST control×100) ([2]; 6 mg/kg i.p.): 136%
- median survival time (MST) ([2]; 6 mg/kg i.p.): 26.5
- number of mice alive (MA) ([2]; 6 mg/kg i.p., 9 daily doses, at Day 10): 10/10
- average weight change (AWC) ([2]; 6 mg/kg i.p., 9 daily doses): -0.3 g
- % T/C (MST/MST control×100) ([2]; 12 mg/kg i.p.): 149%
- median survival time (MST) ([2]; 12 mg/kg i.p.): 29.0
- number of mice alive (MA) ([2]; 12 mg/kg i.p., 9 daily doses, at Day 10): 10/10
- average weight change (AWC) ([2]; 12 mg/kg i.p., 9 daily doses): -1.0 g
- % T/C (MST/MST control×100) ([2]; 18 mg/kg i.p.): 174%
- median survival time (MST) ([2]; 18 mg/kg i.p.): 34.0
- number of mice alive (MA) ([2]; 18 mg/kg i.p., 9 daily doses, at Day 10): 10/10
- average weight change (AWC) ([2]; 18 mg/kg i.p., 9 daily doses): -1.6 g
- % T/C (MST/MST control×100) ([2]; 24 mg/kg i.p.): 177%
- median survival time (MST) ([2]; 24 mg/kg i.p.): 34.5
- number of mice alive (MA) ([2]; 24 mg/kg i.p., 9 daily doses, at Day 10): 10/10
- average weight change (AWC) ([2]; 24 mg/kg i.p., 9 daily doses): -1.4 g
- Blood conc. of Pt ([3]; 1 hr, oral, 100μ mole/kg, suspension in arachis oil): 0.62 ± 0.11 μg/ml of whole blood
- Blood conc. of Pt ([3]; 2 hrs, oral, 100μ mole/kg, suspension in arachis oil): 0.80 ± 0.08 μg/ml of whole blood
- Blood conc. of Pt ([3]; 4 hrs, oral, 100μ mole/kg, suspension in arachis oil): 0.64 ± 0.03 μg/ml of whole blood
- Blood conc. of Pt ([3]; 7 hrs, oral, 100μ mole/kg, suspension in arachis oil): 0.51 ± 0.09 μg/ml of whole blood
- Cage wash (cumulative %) ([3]; 24 hrs, oral, 100μ mole/kg): 5.1 ± 1.2%
- Faeces dose (cumulative %) ([3]; 24 hrs, oral, 100μ mole/kg): 57.0 ± 14.1%
- Urine dose (cumulative %) ([3]; 24 hrs, oral, 100μ mole/kg): 11.4 ± 2.1%
- Blood conc. of Pt ([3]; 24 hrs, oral, 100μ mole/kg, suspension in arachis oil): 0.16 ± 0.05 μg/ml of whole blood
- Cage wash (cumulative %) ([3]; 48 hrs, oral, 100μ mole/kg): 6.4 ± 1.8%
- Faeces dose (cumulative %) ([3]; 48 hrs, oral, 100μ mole/kg): 62.1 ± 13.7%
- Urine dose (cumulative %) ([3]; 48 hrs, oral, 100μ mole/kg): 12.8 ± 1.8%
- Blood conc. of Pt ([3]; 48 hrs, oral, 100μ mole/kg, suspension in arachis oil): 0.16 ± 0.03 μg/ml of whole blood
- therapeutic index TI (LD50/ED90) [4]: 22
- ED90 (dose level causing a 90% reduction in tumor size) [4]: 73 mg/kg
- LD50 (dose level causing 50% deaths) [5]: 1600 mg/kg

SMILES: [NH2][Pt]1([NH]C2CCCC2)[O]C(=O)C2(CCC2)C(=O)[O]1 [Ex. 4, ammine(cyclobutane-1,1-dicarboxylato)cyclopentylamine platinum(II)]
- % T/C (MST/MST control×100) ([1]; 40 mg/kg i.p.): 154%
- median survival time (MST) ([1]; 40 mg/kg i.p.): 10.0
- % T/C (MST/MST control×100) ([1]; 80 mg/kg i.p.): 177%
- median survival time (MST) ([1]; 80 mg/kg i.p.): 11.5
- % T/C (MST/MST control×100) ([1]; 120 mg/kg i.p.): 177%
- median survival time (MST) ([1]; 120 mg/kg i.p.): 11.5
- % T/C (MST/MST control×100) ([1]; 160 mg/kg i.p.): 192%
- median survival time (MST) ([1]; 160 mg/kg i.p.): 12.5
- number of mice alive (MA) ([1]; mouse, in vivo): 6/6
- % T/C (MST/MST control×100) ([2]; 8 mg/kg): 115%
- median survival time (MST) ([2]; 8 mg/kg): 22.5
- % T/C (MST/MST control×100) ([2]; 13 mg/kg i.p.): 133%
- median survival time (MST) ([2]; 13 mg/kg i.p.): 26.0
- % T/C (MST/MST control×100) ([2]; 20 mg/kg i.p.): 149%
- median survival time (MST) ([2]; 20 mg/kg i.p.): 29.0
- % T/C (MST/MST control×100) ([2]; 30 mg/kg i.p.): 164%
- median survival time (MST) ([2]; 30 mg/kg i.p.): 32.0
- number of mice alive (MA) ([2]; mouse, in vivo): 10/10
- Blood conc. of Pt ([3]; mouse, in vivo, po, 1 h): 0.88 ± 0.05 μg/ml of whole blood
- Blood conc. of Pt ([3]; mouse, in vivo, po, 2 h): 1.21 ± 0.16 μg/ml of whole blood
- Blood conc. of Pt ([3]; mouse, in vivo, po, 4 h): 0.82 ± 0.12 μg/ml of whole blood
- Blood conc. of Pt ([3]; mouse, in vivo, po, 7 h): 0.32 ± 0.05 μg/ml of whole blood
- Blood conc. of Pt ([3]; mouse, in vivo, po, 24 h): 0.20 ± 0.03 μg/ml of whole blood
- Cage wash (cumulative %) ([3]; mouse, in vivo, po, 24 h): 7.1 ± 0.7%
- Faeces dose (cumulative %) ([3]; mouse, in vivo, po, 24 h): 57.6 ± 3.5%
- Urine dose (cumulative %) ([3]; mouse, in vivo, po, 24 h): 16.8 ± 2.4%
- Blood conc. of Pt ([3]; mouse, in vivo, po, 48 h): 0.20 ± 0.03 μg/ml of whole blood
- Cage wash (cumulative %) ([3]; mouse, in vivo, po, 48 h): 8.0 ± 0.9%
- Faeces dose (cumulative %) ([3]; mouse, in vivo, po, 48 h): 59.8 ± 3.6%
- Urine dose (cumulative %) ([3]; mouse, in vivo, po, 48 h): 18.2 ± 2.4%
- therapeutic index TI (LD50/ED90) [4]: 32
- ED90 (dose level causing a 90% reduction in tumor size) [4]: 50 mg/kg
- LD50 (dose level causing 50% deaths) [5]: 1600 mg/kg
